Test results: ChEMBL document CHEMBL1201862, “PubChem BioAssay data set” (2004)
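Grown in 96-well plates, cells were treated for 48 hours with each compound at five concentrations. Insufficient inhibition: endpoint recorded as highest concentration tested. GI50 = concentration required for 50% inhibition of growth.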 Calls of active or inactive are those of the source. No stated cut-off is given here; in the data, active = GI50 up to about 1.1 µM and inactive = higher.

Columns and labels:
Test in all cases: NCI-60 cell line screen, 48 h
OVCAR-5 = tested on: OVCAR-5
SW-620 = tested on: SW-620
COLO 205 = tested on: COLO 205
Malme-3M = tested on: Malme-3M
EKVX = tested on: EKVX
M14 = tested on: M14
CAKI-1 = tested on: CAKI-1
K562 = tested on: K562
NCI-H226 = tested on: NCI-H226
OVCAR-4 = tested on: OVCAR-4
HL-60 = tested on: HL-60
HOP-92 = tested on: HOP-92
SK-MEL-2 = tested on: SK-MEL-2
DMS-273 = tested on: DMS-273
ACHN = tested on: ACHN
SNB-75 = tested on: SNB-75
OVCAR-8 = tested on: OVCAR-8
UACC-62 = tested on: UACC-62
NCI/ADR-RES = tested on: NCI/ADR-RES
PC-3 = tested on: PC-3

SMILES	GI50 (OVCAR-5)	GI50 (SW-620)	GI50 (COLO 205)	GI50 (Malme-3M)	GI50 (EKVX)	GI50 (M14)	GI50 (CAKI-1)	GI50 (K562)	GI50 (NCI-H226)	GI50 (OVCAR-4)	GI50 (HL-60)	GI50 (HOP-92)	GI50 (SK-MEL-2)	GI50 (DMS-273)	GI50 (ACHN)	GI50 (SNB-75)	GI50 (OVCAR-8)	GI50 (UACC-62)	GI50 (NCI/ADR-RES)	GI50 (PC-3)
CCCn1c(SCC)c2ccccc2c1-c1nc(F)nc(F)n1	> 100 µM (inactive)	> 100 µM (inactive)	> 100 µM (inactive)	> 100 µM (inactive)	> 100 µM (inactive)	> 100 µM (inactive)	> 100 µM (inactive)	> 100 µM (inactive)	> 100 µM (inactive)	> 100 µM (inactive)	> 100 µM (inactive)	> 100 µM (inactive)	> 100 µM (inactive)	> 100 µM (inactive)	> 100 µM (inactive)	–	–	–	–	–
Cc1ccc(-c2cc(-c3ccccc3)c(C#N)c(=O)[nH]2)cc1	> 100 µM (inactive)	> 100 µM (inactive)	> 100 µM (inactive)	> 100 µM (inactive)	> 100 µM (inactive)	> 100 µM (inactive)	–	> 100 µM (inactive)	> 100 µM (inactive)	79.1 µM (inactive)	> 100 µM (inactive)	56.9 µM (inactive)	–	> 100 µM (inactive)	> 100 µM (inactive)	53.2 µM (inactive)	> 100 µM (inactive)	> 100 µM (inactive)	–	–
Cc1cc2c(cc1C)[n+]([O-])c(C(=O)C/C(=N/OCCCc1ccccc1)C(=O)Nc1cc(Cl)ccc1Cl)c(C)[n+]2[O-]	> 100 µM (inactive)	> 100 µM (inactive)	> 100 µM (inactive)	> 100 µM (inactive)	> 100 µM (inactive)	> 100 µM (inactive)	> 100 µM (inactive)	> 100 µM (inactive)	> 100 µM (inactive)	> 100 µM (inactive)	> 100 µM (inactive)	–	0.0562 µM (active)	> 100 µM (inactive)	> 100 µM (inactive)	> 100 µM (inactive)	> 100 µM (inactive)	> 100 µM (inactive)	–	–
[N-]=[N+]=NC1(Cc2ccccc2)C(=O)c2cccc3c2N(CCC3)C1=O (stereo unspecified)	> 100 µM (inactive)	> 100 µM (inactive)	> 100 µM (inactive)	> 100 µM (inactive)	–	> 100 µM (inactive)	> 100 µM (inactive)	> 100 µM (inactive)	> 100 µM (inactive)	> 100 µM (inactive)	> 100 µM (inactive)	> 100 µM (inactive)	> 100 µM (inactive)	> 100 µM (inactive)	> 100 µM (inactive)	> 100 µM (inactive)	> 100 µM (inactive)	> 100 µM (inactive)	–	–
COC1OC(CBr)C(OC(=O)c2ccccc2)C(OS(=O)(=O)c2ccc(C)cc2)C1Br (stereo unspecified)	–	> 100 µM (inactive)	> 100 µM (inactive)	> 100 µM (inactive)	> 100 µM (inactive)	> 100 µM (inactive)	> 100 µM (inactive)	> 100 µM (inactive)	–	> 100 µM (inactive)	> 100 µM (inactive)	70.1 µM (inactive)	> 100 µM (inactive)	> 100 µM (inactive)	> 100 µM (inactive)	–	> 100 µM (inactive)	> 10 µM (inactive)	–	–
CCOC(=O)C1=C(C)N2CCOC2(C)C(C(=O)OC)C1c1cccc(Cl)c1 (stereo unspecified)	> 100 µM (inactive)	> 100 µM (inactive)	> 100 µM (inactive)	> 100 µM (inactive)	> 100 µM (inactive)	> 100 µM (inactive)	> 100 µM (inactive)	81.5 µM (inactive)	–	–	56.4 µM (inactive)	31.6 µM (inactive)	> 100 µM (inactive)	> 100 µM (inactive)	> 100 µM (inactive)	> 100 µM (inactive)	> 100 µM (inactive)	88.7 µM (inactive)	–	–
COC1(OC)CC2OC1C1N=NN(C(=O)OC(C)(C)C)C21 (stereo unspecified)	> 100 µM (inactive)	57.5 µM (inactive)	> 100 µM (inactive)	> 100 µM (inactive)	–	> 100 µM (inactive)	> 100 µM (inactive)	36 µM (inactive)	> 100 µM (inactive)	> 100 µM (inactive)	24.3 µM (inactive)	> 100 µM (inactive)	> 100 µM (inactive)	> 100 µM (inactive)	> 100 µM (inactive)	> 100 µM (inactive)	–	> 100 µM (inactive)	–	–
CCCCC(/C=N/NC(=N)N)CC.Cc1cc(O)c(C(C)C)cc1S(=O)(=O)O	–	27 µM (inactive)	18.2 µM (inactive)	43.9 µM (inactive)	30.8 µM (inactive)	36.2 µM (inactive)	–	26.5 µM (inactive)	18.2 µM (inactive)	–	8.85 µM (inactive)	–	–	38 µM (inactive)	56.6 µM (inactive)	54 µM (inactive)	> 100 µM (inactive)	84.1 µM (inactive)	–	–
COc1ccc2c(c1OC)C(C=C(c1ccccc1)c1ccccc1)CN(C)C2 (stereo unspecified)	6.79 µM (inactive)	13.4 µM (inactive)	14.5 µM (inactive)	20.2 µM (inactive)	35.3 µM (inactive)	14.5 µM (inactive)	14.2 µM (inactive)	6.21 µM (inactive)	22.6 µM (inactive)	41.4 µM (inactive)	–	14.2 µM (inactive)	–	17.5 µM (inactive)	24.4 µM (inactive)	34.3 µM (inactive)	20.4 µM (inactive)	17.3 µM (inactive)	–	–
O=C1CC(c2c(-c3ccccc3)[nH]c3ccccc23)C(=O)N1c1ccccc1 (stereo unspecified)	> 100 µM (inactive)	> 100 µM (inactive)	–	> 100 µM (inactive)	> 100 µM (inactive)	> 100 µM (inactive)	59.4 µM (inactive)	57.1 µM (inactive)	> 100 µM (inactive)	68.9 µM (inactive)	44.6 µM (inactive)	–	> 100 µM (inactive)	> 100 µM (inactive)	40.5 µM (inactive)	> 100 µM (inactive)	> 100 µM (inactive)	54.2 µM (inactive)	–	–
CCOC(=O)/C(C#N)=C(O)/C(=C/c1ccccc1Cl)NC(=O)c1ccccc1	> 100 µM (inactive)	18.8 µM (inactive)	> 100 µM (inactive)	> 100 µM (inactive)	> 100 µM (inactive)	> 100 µM (inactive)	> 100 µM (inactive)	88.1 µM (inactive)	> 100 µM (inactive)	> 100 µM (inactive)	> 100 µM (inactive)	> 100 µM (inactive)	–	31.5 µM (inactive)	> 100 µM (inactive)	> 100 µM (inactive)	> 100 µM (inactive)	> 100 µM (inactive)	–	–
CCOC(=O)C1=C(C)N(NC(=O)Nc2ccccc2)C2(N)N(NC(=O)Nc3ccccc3)C(C)=C(C(=O)OCC)C12C(=O)OCC (stereo unspecified)	> 100 µM (inactive)	69.7 µM (inactive)	1.85 µM (inactive)	33 µM (inactive)	> 100 µM (inactive)	33.2 µM (inactive)	–	> 100 µM (inactive)	–	29.5 µM (inactive)	35.2 µM (inactive)	18.8 µM (inactive)	52.7 µM (inactive)	41.9 µM (inactive)	56.4 µM (inactive)	25.9 µM (inactive)	35.9 µM (inactive)	49.3 µM (inactive)	–	–
CCCCCCCCCCCCCCCCc1c(O)nc(NN)nc1C(=O)OC	> 50 µM (inactive)	> 50 µM (inactive)	> 50 µM (inactive)	> 50 µM (inactive)	> 50 µM (inactive)	> 50 µM (inactive)	> 50 µM (inactive)	> 50 µM (inactive)	–	> 50 µM (inactive)	> 50 µM (inactive)	22.4 µM (inactive)	> 50 µM (inactive)	> 50 µM (inactive)	> 50 µM (inactive)	> 50 µM (inactive)	> 50 µM (inactive)	> 50 µM (inactive)	–	–
Cc1ccc(SSCCCCS(=O)O)cc1	45.4 µM (inactive)	17.5 µM (inactive)	19.5 µM (inactive)	19.2 µM (inactive)	18.5 µM (inactive)	16.4 µM (inactive)	18.9 µM (inactive)	24.3 µM (inactive)	–	15.8 µM (inactive)	3.89 µM (inactive)	–	25.1 µM (inactive)	19.6 µM (inactive)	19 µM (inactive)	14.1 µM (inactive)	> 10 µM (inactive)	15.3 µM (inactive)	–	–
O=C(O)C[C@H]1CCCCC12CCOC2=O (stereo partly specified)	> 100 µM (inactive)	> 100 µM (inactive)	> 100 µM (inactive)	–	> 100 µM (inactive)	> 100 µM (inactive)	> 100 µM (inactive)	> 100 µM (inactive)	> 100 µM (inactive)	> 100 µM (inactive)	> 100 µM (inactive)	> 100 µM (inactive)	87.5 µM (inactive)	> 100 µM (inactive)	> 100 µM (inactive)	> 100 µM (inactive)	> 100 µM (inactive)	> 100 µM (inactive)	–	–
Nc1nc(O)c2nc(N)n(Cc3ccccc3)c2n1	> 100 µM (inactive)	> 100 µM (inactive)	> 100 µM (inactive)	> 100 µM (inactive)	> 100 µM (inactive)	> 100 µM (inactive)	> 100 µM (inactive)	> 100 µM (inactive)	–	> 100 µM (inactive)	> 100 µM (inactive)	> 100 µM (inactive)	> 100 µM (inactive)	> 100 µM (inactive)	> 100 µM (inactive)	> 100 µM (inactive)	> 100 µM (inactive)	> 100 µM (inactive)	–	–
CCOC(=O)C1=C(C)NC(=S)NC1c1cccc(O)c1 (stereo unspecified) [MONASTROL]	76.6 µM (inactive)	44.3 µM (inactive)	31.6 µM (inactive)	60.3 µM (inactive)	62.7 µM (inactive)	23.5 µM (inactive)	63.8 µM (inactive)	32.7 µM (inactive)	55 µM (inactive)	66.1 µM (inactive)	25.7 µM (inactive)	32.4 µM (inactive)	32.4 µM (inactive)	–	85.3 µM (inactive)	37.2 µM (inactive)	57.7 µM (inactive)	36.6 µM (inactive)	> 100 µM (inactive)	36.1 µM (inactive)
